The source of these data is ChEMBL document CHEMBL1201862, “PubChem BioAssay data set” (2004).

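All cell lines were grown in 96-well plates and treated with compound for 48 hours. Abbreviation: GI50, concentration required for 50% inhibition of growth.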 Activity calls are given as the source filed them. Rule as the data show it: active = GI50 up to about 1.1 µM and inactive = higher.

Some test systems named below: 786-0; ACHN; BT-549; EKVX; HCT-116; HL-60; IGROV-1; M14; MDA-MB-435; MOLT-4; NCI-H226; NCI-H522; SF-268; SK-OV-3; T47D; UACC-257; UACC-62; UO-31; NCI-H460; OVCAR-3.
What all share (assay): NCI tumour cell line growth inhibition, 48 h

On to `CCSc1cc(C(=O)OC)c2n(c1=O)CCCC2`, for which the GI50 with 786-0, in the experiment on ACHN, in the experiment with BT-549, in the experiment with EKVX, with HCT-116 and in the experiment on HL-60 was > 100 µM (inactive) throughout. Also, the GI50 with IGROV-1, in the experiment on M14, with MDA-MB-435, with MOLT-4, in the experiment with NCI-H226 and with NCI-H522 was > 100 µM (inactive) each time. Also, the GI50 with SF-268, in the experiment with SK-OV-3, in the experiment on T47D, in the experiment with UACC-257, with UACC-62 and in the experiment on UO-31 was > 100 µM (inactive) each time.
On to `O=C(O)c1[nH]c(=O)[nH]c(=O)c1CN1CCCCC1`, for which the GI50 with 786-0, in the experiment with ACHN, in the experiment with BT-549, in the experiment with EKVX, with HCT-116 and in the experiment with HL-60 was > 100 µM (inactive) throughout. The GI50 with IGROV-1, in the experiment with M14, with MDA-MB-435, in the experiment with NCI-H226, with NCI-H460 and in the experiment on NCI-H522 was > 100 µM (inactive) in each case. In addition, the GI50 in the experiment on OVCAR-3, with SF-268, in the experiment with SK-OV-3, in the experiment with T47D, in the experiment on UACC-257 and in the experiment on UACC-62 was > 100 µM (inactive) throughout. The GI50 in the experiment with UO-31 was > 100 µM (inactive).
On to `O=C1C=CC2(C=C1)O[C@H](Cc1ccccc1)[C@@H](Cc1ccccc1)O2`, for which the GI50 with ACHN was 0.279 µM (active); with BT-549 it was 0.201 µM (active); with EKVX it was 0.355 µM (active); in the experiment with HCT-116 it was 0.1 µM (active); with HL-60, 1.28 µM (inactive); with IGROV-1, 0.218 µM (active). Moreover, the GI50 was 0.653 µM (active) in the experiment on M14; 1.31 µM (inactive) in the experiment with MDA-MB-435; 0.255 µM (active) in the experiment on NCI-H226; 8.79 µM (inactive) in the experiment with NCI-H460; 0.174 µM (active) in the experiment on NCI-H522; 0.298 µM (active) in the experiment with OVCAR-3. Also, the GI50 in the experiment on SF-268 was 0.755 µM (active); in the experiment with SK-OV-3, 5.85 µM (inactive); in the experiment on T47D, 0.44 µM (active); in the experiment on UACC-257, 1.28 µM (inactive); in the experiment on UACC-62, 1.66 µM (inactive); with UO-31 it was 0.258 µM (active).
On to `CCCCCc1c(CCCC)c(O)nc2nc(NC(=O)CCCC)ccc12`, for which the GI50 in the experiment with 786-0, in the experiment with ACHN, with BT-549, with EKVX, in the experiment on HCT-116 and with IGROV-1 was > 100 µM (inactive) throughout. The GI50 in the experiment with M14, in the experiment on MDA-MB-435, in the experiment on MOLT-4, with NCI-H226, with NCI-H460 and in the experiment with NCI-H522 was > 100 µM (inactive) each time. Further, the GI50 with OVCAR-3, with SF-268, in the experiment with SK-OV-3, with T47D, in the experiment on UACC-257 and in the experiment with UO-31 was > 100 µM (inactive) throughout.
For the molecule `COc1ccc(/C(C)=N/NC(=S)N(C)C)c(O)c1`, the GI50 in the experiment on ACHN was 6.41 µM (inactive); in the experiment with BT-549 it was 18.9 µM (inactive); with EKVX, 5.41 µM (inactive); in the experiment on HCT-116 it was 6.95 µM (inactive); in the experiment with IGROV-1, 4.31 µM (inactive); in the experiment on M14, 2.72 µM (inactive). In addition, the GI50 was 27.7 µM (inactive) with MDA-MB-435; 4.57 µM (inactive) in the experiment with MOLT-4; 4.09 µM (inactive) in the experiment on NCI-H226; 14 µM (inactive) in the experiment on NCI-H460; 12.9 µM (inactive) in the experiment with NCI-H522; 4.85 µM (inactive) with OVCAR-3. Moreover, the GI50 in the experiment with SF-268 is 12 µM (inactive); in the experiment with SK-OV-3, 3.84 µM (inactive); in the experiment with T47D it was 7.48 µM (inactive); with UACC-257, 20.9 µM (inactive); in the experiment with UACC-62, 4.35 µM (inactive); in the experiment on UO-31 it was 5.65 µM (inactive).
For the molecule `CO/N=C\c1cc(O)c(O)c(/C=N/OC)c1`, the GI50 in the experiment with ACHN was 29.6 µM (inactive); in the experiment with BT-549, > 100 µM (inactive); in the experiment on EKVX, 47.4 µM (inactive); in the experiment on HCT-116, 23.8 µM (inactive); in the experiment with HL-60, 3.48 µM (inactive); with IGROV-1 it was 27.4 µM (inactive). In addition, the GI50 in the experiment on M14 was 33.3 µM (inactive); in the experiment on MDA-MB-435 it was 50.5 µM (inactive); with MOLT-4, 8.17 µM (inactive); with NCI-H226, 30.3 µM (inactive); in the experiment on NCI-H460, 23.1 µM (inactive); in the experiment with NCI-H522 it was 14.1 µM (inactive). Also, the GI50 in the experiment on OVCAR-3 was 4.82 µM (inactive); with SF-268, 10.9 µM (inactive); in the experiment on SK-OV-3, 29.1 µM (inactive); with T47D, 26.1 µM (inactive); in the experiment on UACC-257 it was > 100 µM (inactive); in the experiment with UACC-62, 38.8 µM (inactive). Also, the GI50 with UO-31 is 11.3 µM (inactive).
In the case of `O=C1C=C(C2=CC(=O)C(=O)c3ccccc32)c2ccccc2C1=O`, the GI50 in the experiment with 786-0 was 13 µM (inactive); in the experiment with ACHN it was 21 µM (inactive); in the experiment on BT-549 it was 46.6 µM (inactive); in the experiment on EKVX, 34.8 µM (inactive); in the experiment with HCT-116, 6.65 µM (inactive); with HL-60, 3.03 µM (inactive). For the same molecule, the GI50 is 28.8 µM (inactive) in the experiment on IGROV-1; 6.46 µM (inactive) with M14; 1.93 µM (inactive) in the experiment on MDA-MB-435; 2.44 µM (inactive) in the experiment on MOLT-4; 38.5 µM (inactive) in the experiment with NCI-H226; 2.76 µM (inactive) with NCI-H522. For the same molecule, the GI50 with OVCAR-3 was 2.58 µM (inactive); in the experiment with SF-268 it was 13.5 µM (inactive); in the experiment on SK-OV-3, 44.1 µM (inactive); with T47D, 19.5 µM (inactive); in the experiment with UACC-257, 6.24 µM (inactive); in the experiment with UACC-62, 5.37 µM (inactive). For the same molecule, the GI50 in the experiment with UO-31 was 6.14 µM (inactive).
In the case of `CC1(C)CCN2C(=O)C34CCCC3CC21S4` (centres undefined), the GI50 in the experiment with 786-0, in the experiment with ACHN, with BT-549, with EKVX, in the experiment with HCT-116 and in the experiment on HL-60 was > 100 µM (inactive) in each case. Also, the GI50 with IGROV-1, in the experiment with M14, in the experiment with MDA-MB-435, in the experiment on MOLT-4, in the experiment on NCI-H226 and with NCI-H522 was > 100 µM (inactive) throughout. Moreover, the GI50 in the experiment with OVCAR-3, in the experiment with SF-268, in the experiment with SK-OV-3, in the experiment with T47D, in the experiment with UACC-257 and in the experiment on UACC-62 was > 100 µM (inactive) in each case. Also, the GI50 in the experiment on UO-31 is > 100 µM (inactive).
Turning to `NC(Cc1ncccn1)C(=O)O` (centres undefined), the GI50 with 786-0, in the experiment on ACHN, in the experiment on BT-549, with EKVX, in the experiment with HCT-116 and with IGROV-1 was > 100 µM (inactive) in each case. Besides, the GI50 in the experiment on M14, in the experiment on MDA-MB-435, with MOLT-4, in the experiment on NCI-H226, in the experiment on NCI-H460 and in the experiment with NCI-H522 was > 100 µM (inactive) throughout. Moreover, the GI50 with OVCAR-3, with SF-268, in the experiment with SK-OV-3, with T47D, in the experiment with UACC-257 and in the experiment with UACC-62 was > 100 µM (inactive) in each case. The GI50 with UO-31 is > 100 µM (inactive).
For the molecule `N#C/C(=C\c1ccc(F)cc1)c1nc(-c2cc3ccccc3oc2=O)cs1`, the GI50 was 14.8 µM (inactive) in the experiment on 786-0; 22 µM (inactive) in the experiment with ACHN; 12.3 µM (inactive) in the experiment on BT-549; 30.8 µM (inactive) in the experiment with EKVX; 35.2 µM (inactive) in the experiment on HCT-116; > 100 µM (inactive) with HL-60. The GI50 was 22.6 µM (inactive) in the experiment on IGROV-1; 13.8 µM (inactive) in the experiment with M14; 54.2 µM (inactive) with MDA-MB-435; > 100 µM (inactive) in the experiment on MOLT-4; 28.7 µM (inactive) in the experiment on NCI-H226; 33.5 µM (inactive) in the experiment on NCI-H460. The GI50 was 17.9 µM (inactive) with NCI-H522; 16.5 µM (inactive) in the experiment on SF-268; 20.4 µM (inactive) with SK-OV-3; 24.2 µM (inactive) with T47D; 20.7 µM (inactive) with UACC-257; 15 µM (inactive) in the experiment on UACC-62. Moreover, the GI50 with UO-31 is 26.9 µM (inactive).
Regarding `Nc1ccc(Nc2cc(=O)[nH]c(=O)[nH]2)cc1Cl`, the GI50 in the experiment on 786-0, in the experiment with ACHN, in the experiment on BT-549, in the experiment with HCT-116, in the experiment with HL-60 and with M14 was > 100 µM (inactive) in each case. Moreover, the GI50 with MDA-MB-435, with MOLT-4, with NCI-H226, in the experiment with NCI-H460, in the experiment with NCI-H522 and in the experiment with OVCAR-3 was > 100 µM (inactive) throughout. The GI50 in the experiment with SF-268, in the experiment with SK-OV-3, in the experiment on T47D, with UACC-257, in the experiment on UACC-62 and in the experiment on UO-31 was > 100 µM (inactive) in each case.
